{"source": "paper PMC7808986", "about": "(Clinical Pharmacokinetics, 2020)", "key": {"Adverse event monitoring": {"assay": "Adverse event monitoring", "format": "in vivo, NSCLC patients"}, "[1]": {"format": "in vivo, NSCLC patients", "details": "for AUC / Cmax: geomean; for Cmax: Cmax (CV %); for Cmax RD, PPI with milk vs. PPI with water (95% CI): n = 15"}, "[2]": {"details": "cited from earlier work"}, "[3]": {"details": "cited from earlier work", "remark": "listed apart in the source"}, "[4]": {"details": "Milk [n = 30], without and with esomeprazole"}, "[5]": {"details": "Water [n = 29], without and with esomeprazole"}}, "note": "Values joined by “and” are separate entries in the source; they are usually repeats but may differ in a detail not shown here. Equal entries are not always repeated. “Also recorded” adds a separate entry of the source. Where two headings read alike, the source gives them in different places. Marks after values point to notes of the source that are not given here."}
{"compound": "C#Cc1cccc(Nc2ncnc3cc(OCCOC)c(OCCOC)cc23)c1", "note": "[erlotinib]", "values": [{"measurement": "All events, Grade 1–2", "setting": "Adverse event monitoring; Baseline [n = 30]", "result": "29 (97) n (%)"}, {"measurement": "Alopecia, Grade 1–2", "setting": "Adverse event monitoring; Baseline [n = 30]", "result": "12 (40) n (%)"}, {"measurement": "Constipation, Grade 1–2", "setting": "Adverse event monitoring; Baseline [n = 30]", "result": "5 (17) n (%)"}, {"measurement": "Diarrhea, Grade 1–2", "setting": "Adverse event monitoring; Baseline [n = 30]", "result": "6 (20) n (%)"}, {"measurement": "Fatigue, Grade 1–2", "setting": "Adverse event monitoring; Baseline [n = 30]", "result": "10 (33) n (%)"}, {"measurement": "Nausea, Grade 1–2", "setting": "Adverse event monitoring; Baseline [n = 30]", "result": "1 (3) n (%)"}, {"measurement": "Pain, Grade 1–2", "setting": "Adverse event monitoring; Baseline [n = 30]", "result": "5 (17) n (%)"}, {"measurement": "Rash, Grade 1–2", "setting": "Adverse event monitoring; Baseline [n = 30]", "result": "23 (77) n (%)"}, {"measurement": "Serious adverse event, Grade 3", "setting": "Adverse event monitoring; Baseline [n = 30], spinal fracture, not related to study procedures", "result": "1 (3%)^a n (%)"}, {"measurement": "All events, Grade 1–2", "setting": "Adverse event monitoring; [4]", "result": "28 (93) n (%)"}, {"measurement": "All events, Grade 3", "setting": "Adverse event monitoring; [4]", "result": "2 (6) n (%)"}, {"measurement": "Alopecia, Grade 1–2", "setting": "Adverse event monitoring; [4]", "result": "11 (37) n (%)"}, {"measurement": "Constipation, Grade 1–2", "setting": "Adverse event monitoring; [4]", "result": "3 (10) n (%)"}, {"measurement": "Diarrhea, Grade 1–2", "setting": "Adverse event monitoring; [4]", "result": "3 (10) n (%)"}, {"measurement": "Fatigue, Grade 1–2", "setting": "Adverse event monitoring; [4]", "result": "6 (20) n (%)"}, {"measurement": "Nausea, Grade 1–2", "setting": "Adverse event monitoring; [4]", "result": "3 (10) n (%)"}, {"measurement": "Nausea, Grade 3", "setting": "Adverse event monitoring; [4]", "result": "1 (3) n (%)"}, {"measurement": "Pain, Grade 1–2", "setting": "Adverse event monitoring; [4]", "result": "9 (30) n (%)"}, {"measurement": "Rash, Grade 1–2", "setting": "Adverse event monitoring; [4]", "result": "20 (67) n (%)"}, {"measurement": "Rash, Grade 3", "setting": "Adverse event monitoring; [4]", "result": "1 (3) n (%)"}, {"measurement": "All events, Grade 1–2", "setting": "Adverse event monitoring; [5]", "result": "28 (97) n (%)"}, {"measurement": "Alopecia, Grade 1–2", "setting": "Adverse event monitoring; [5]", "result": "11 (38) n (%)"}, {"measurement": "Constipation, Grade 1–2", "setting": "Adverse event monitoring; [5]", "result": "1 (3) n (%)"}, {"measurement": "Diarrhea, Grade 1–2", "setting": "Adverse event monitoring; [5]", "result": "3 (10) n (%)"}, {"measurement": "Fatigue, Grade 1–2", "setting": "Adverse event monitoring; [5]", "result": "10 (34) n (%)"}, {"measurement": "Nausea, Grade 1–2", "setting": "Adverse event monitoring; [5]", "result": "3 (10) n (%)"}, {"measurement": "Pain, Grade 1–2", "setting": "Adverse event monitoring; [5]", "result": "7 (24) n (%)"}, {"measurement": "Rash, Grade 1–2", "setting": "Adverse event monitoring; [5]", "result": "18 (62) n (%)"}, {"measurement": "Difference in toxicities between milk and water periods", "setting": "Adverse event monitoring; independent of study arm (with and without PPI)", "result": "No differences in toxicities were observed; also recorded: Patient-reported toxicity was equal between the milk and water groups, with and without proton pump inhibitors. Hence, cow’s milk can be used as a safe alternative to water for the administration of erlotinib. Concomitant treatment with esomeprazole should be avoided if possible"}, {"measurement": "Patient-reported adverse events during study compared with baseline", "setting": "Adverse event monitoring; overall", "result": "did not increase compared with baseline"}, {"measurement": "Tmax (IQR), median", "setting": "[1]; No PPI with milk [n = 14]", "result": "2.50 (2.00–3.00) hours"}, {"measurement": "Interpatient variability (CV) in AUC24", "setting": "[1]; PPI (esomeprazole), with milk", "result": 38, "unit": "%"}, {"measurement": "Interpatient variability (CV) in AUC24", "setting": "[1]; PPI (esomeprazole), with water", "result": 61, "unit": "%"}, {"measurement": "Increase in Tmax with milk vs water", "setting": "[1]; both study arms, non-significant", "result": 0.5, "unit": "h"}, {"measurement": "Decrease in erlotinib AUC24 by esomeprazole", "setting": "[1]; esomeprazole 40 mg once daily 3 h prior to erlotinib vs no esomeprazole, n = 9", "result": "47% and ~50%"}, {"measurement": "AUC", "setting": "[1]; human, plasma, oral, AUC24 (CV %), No PPI [n = 9], patients in both study arms, corrected for coadministration with milk", "result": 20100, "unit": "ng·h/mL"}, {"measurement": "AUC", "setting": "[1]; human, plasma, oral, AUC24 (CV %), PPI [n = 9], patients in both study arms, corrected for coadministration with milk", "result": 10600, "unit": "ng·h/mL"}, {"measurement": "AUC", "setting": "[1]; human, plasma, oral, AUC24 (CV%), No PPI with milk [n = 14]", "result": 22400, "unit": "ng·h/mL"}, {"measurement": "Cmax", "setting": "[1]; human, plasma, oral, PPI [n = 9], patients in both study arms, corrected for coadministration with milk", "result": 750, "unit": "ng/mL"}, {"measurement": "Cmax", "setting": "[1]; human, plasma, oral, PPI with milk [n = 15]", "result": 820, "unit": "ng/mL"}, {"measurement": "Tmax", "setting": "[1]; human, plasma, po", "result": 2.52, "unit": "h"}, {"measurement": "AUC", "setting": "[1]; human, plasma, po, AUC24 (CV%), No PPI with water [n = 14]", "result": 23000, "unit": "ng·h/mL"}, {"measurement": "Cmax", "setting": "[1]; human, plasma, po, No PPI with water [n = 14]", "result": 1850, "unit": "ng/mL"}, {"measurement": "Cmax", "setting": "[1]; human, plasma, po, PPI with water [n = 15]", "result": 810, "unit": "ng/mL"}, {"measurement": "Cmax RD, no-PPI with milk vs. no-PPI with water (95% CI)", "setting": "[1]; n = 14", "result": 6, "unit": "%"}, {"measurement": "Cmax RD, PPI with milk vs. PPI with water (95% CI)", "setting": "[1]", "result": 1, "unit": "%"}, {"measurement": "Cmax RD, PPI with milk vs. PPI with water (95% CI)", "setting": "[1]; listed as Erlotinib", "result": "1.5% (− 12 to 17%)"}, {"measurement": "Interpatient variability (CV) in AUC24", "setting": "[1]; no PPI, with milk", "result": 35, "unit": "%"}, {"measurement": "Interpatient variability (CV) in AUC24", "setting": "[1]; no PPI, with water", "result": 37, "unit": "%"}, {"measurement": "Decrease in AUC24 when administered with milk compared with water", "setting": "[1]; non-PPI patients, non-significant", "result": 3, "unit": "%"}, {"measurement": "Increase in exposure", "setting": "[2]; administered concomitantly with a high-fat meal ref 3", "result": "33–66%"}, {"measurement": "AUC increase", "setting": "[2]; high-fat meal taken 2 h after erlotinib administration ref 22", "result": 33, "unit": "%"}, {"measurement": "Increase in AUC", "setting": "[2]; high-fat meal, food and drug taken concomitantly ref 23", "result": 66, "unit": "%"}]}
{"compound": "Cc1cn(-c2cc(NC(=O)c3ccc(C)c(Nc4nccc(-c5cccnc5)n4)c3)cc(C(F)(F)F)c2)cn1", "note": "[nilotinib]", "values": [{"measurement": "Safety of coadministration with yoghurt", "setting": "[3]", "result": "considered safe"}]}
{"compound": "CS(=O)(=O)CCNCc1ccc(-c2ccc3ncnc(Nc4ccc(OCc5cccc(F)c5)c(Cl)c4)c3c2)o1", "note": "[lapatinib]", "values": [{"measurement": "AUC increase", "setting": "[2]; with a high-fat meal ref 3", "result": "up to 325%"}, {"measurement": "AUC increase", "setting": "[2]; with a low-fat meal ref 3", "result": "≤ 200", "unit": "%"}]}
